In brackets after ≈: the same amount, converted by molar mass.
Legend:
P. aeruginosa B3-CFI = details: clinical isolate, colistin resistant, MHB-II, 37°C, ~5×10^5 CFU/ml, triplicate
E. coli ESBL20150072 = experiment: In vivo sepsis/peritonitis mouse infection model; details: NMRI mice infected IP; 10 mg/kg IP at 1 and 3 h; 5 hours post infection
Procedure: Outbred female NMRI mice (NMRI; weight 26–30 g; Taconic, Denmark) were used throughout the study, as previously described ([69], [70]). […] Colistin is recommended at a dose of 5-10 mg/kg, according to the European Medicines Agency (EMA) ([71]). The animals were kept in Macrolon type III cages in groups of six and allowed free access to feed and water. Experiments were initiated after an acclimatization period of 7 days. Inoculation (bacterial infection) was performed by intraperitoneal (IP) injection of 0.5 ml bacterial suspension containing 2×10^7 CFU/ml and 5% (wt/vol) mucin (Sigma-Aldrich). During experiments, groups of eight mice per cage constituting one experimental unit were randomly assigned to treatment (5 mg/kg ChIP and 10 mg/kg ChIP or colistin 10 mg/kg and 24 mg/kg) or no treatment (vehicle). Peptide and colistin was administered as a single bolus injection IP (volume injected 0.2 ml) at 1 hours and again 3. At various times post-infection, ∼200 µL blood from the jaw/cheek was collected in Eppendorf tubes with anti-coagulate (Sarstedt, Nümbrecht, Germany). Peritoneal lavage was performed by injecting 2.0 ml of sterile physiological saline IP. After 1 minute of abdominal massage, the peritoneum was opened and peritoneal lavage fluid (PLF) withdrawn. PLF was immediately placed in an insulated 4 °C cooling box for transportation and kept on ice at 4 °C. The mouse peritonitis model was repeated in duplicates for E. coli ATCC 25922 and A. baumannii ATCC 19606 nad in triplicate for E. coli ESBL20150072, while only a single experiment was carried out on A. baumannii CR17. Animals were sacrificed at various times prior to and following infection. Data from repeated experiments were pooled for analyses. Quantification of bacterial load was performed by spot plating of blood and peritoneal fluid samples from the mice. Dilution series were made in sterile 0.9% NaCl solution, from which 20 μl was spotted on solid lactose agar plates (Bromthymole Blue plates, SSI Diagnostica). Bacterial counts were recorded after overnight incubation at 37 °C in ambient air. The detection limit was 50 CFU/ml. The clinical condition of the mice was determined using a self-developed clinical score. For this score, mouse behavior and appearance were observed and evaluated for the parameters piloerection, attitude, locomotion, breathing and curiosity and awarded a score from 0 to 5 by a blinded observer. 0 = no clinical signs, 1 = slightly ruffled fur, 2 = ruffled fur and strenuous breathing, 3 = 2 plus lethargy, 4 = 3 plus hunched posture and decreased activity, and 5 = moribund. No significant difference in the clinical score between groups was observed 2 and 4 h post treatment. All mice were recorded for score 2.

E. coli ATCC 25922 [1] = experiment: In vivo sepsis/peritonitis mouse infection model; details: NMRI mice infected IP
E. coli MG1655 = experiment: Macromolecular incorporation assay; format: cell-based; details: 10xMIC, high cell density (OD600 = 0.1, approximately 1×10^8 CFU/ml), AB minimal medium
Procedure: Bacteria were grown in cation adjusted Müller-Hinton broth (MHB-II; Sigma-Aldrich) for MIC or Luria-Bertani (LB) broth at 37°C, supplemented with relevant antibiotics when required. For macromolecular incorporation measurements cells were grown in AB minimal medium ([65]) supplemented with 10 μg/ml thiamine and 0.2% glucose without Cas amino acids. Except for glucosamine incorporation where 0.2% glycerol was used as carbon source. Growth rate of the mcr-1 carrying BW25113 strain was determined in MHB-II on exponentially growing cells by measuring OD600 over time.
Macromolecular synthesis was determined by incorporation of […], 3H-arginine or 3H-glucosamine into DNA, RNA, proteins and cell wall respectively, as described previously ([66]). Briefly, 500 µl samples of exponentially growing MG1655 cells were incubated with 0.375 µCi of the relevant precursor for 2 minutes (uridine), 4 minutes (thymidine and arginine), and 20 minutes (glucosamine). Reactions were stopped by adding 5 ml of ice-cold 5% TCA containing 0.1 M NaCl. Samples were filtered (ADVANTEC®, 25mm, lot no: 80302708) washed twice and dried overnight in scintillation vials (PV1AS, MERIDIAN, BIOTECHNOLOGIES Ltd) before counting on a HINDEX 300SL in 5 ml of scintillation fluid (Scintillation fluid, ULTIMA GOLD™, Perkin Elmer, Inc. LOT No.: 77-18151).

E. coli and A. baumannii = experiment: Mouse peritonitis model, overall statement; format: in vivo; details: after two-dose treatment
Procedure: Outbred female NMRI mice (NMRI; weight 26–30 g; Taconic, Denmark) were used throughout the study, as previously described ([69], [70]). […] Colistin is recommended at a dose of 5-10 mg/kg, according to the European Medicines Agency (EMA) ([71]). The animals were kept in Macrolon type III cages in groups of six and allowed free access to feed and water. Experiments were initiated after an acclimatization period of 7 days. Inoculation (bacterial infection) was performed by intraperitoneal (IP) injection of 0.5 ml bacterial suspension containing 2×10^7 CFU/ml and 5% (wt/vol) mucin (Sigma-Aldrich). During experiments, groups of eight mice per cage constituting one experimental unit were randomly assigned to treatment (5 mg/kg ChIP and 10 mg/kg ChIP or colistin 10 mg/kg and 24 mg/kg) or no treatment (vehicle). […] Quantification of bacterial load was performed by spot plating of blood and peritoneal fluid samples from the mice. […] Bacterial counts were recorded after overnight incubation at 37 °C in ambient air. […] The clinical condition of the mice was determined using a self-developed clinical score. For this score, mouse behavior and appearance were observed and evaluated for the parameters piloerection, attitude, locomotion, breathing and curiosity and awarded a score from 0 to 5 by a blinded observer. […] All mice were recorded for score 2.

E. coli ATCC 25922 [2] = experiment: Time kill experiments; format: cell-based; details: 1xMIC, exponentially growing cells, 5×10^5-1×10^6 CFU/ml, MHB-II; plateau, regrowth evident after 3 hours
[3] = cited from earlier work
[4] = 5 mg/kg IP at 1 and 3 h post infection
[5] = 10 mg/kg IP at 1 and 3 h post infection

SMILES: CC[C@@H](C)[C@@H](NC(=O)[C@@H](CCCCN)NC(=O)[C@@H](CCCCN)NC(=O)[C@@H](Cc1ccccc1)NC(=O)[C@@H](CC(C)C)NC(=O)[C@@H](CCCCN)NC(=O)[C@H](N)CCCCN)C(=O)N[C@H](CC(C)C)C(=O)N[C@H](CCCNC(=N)N)C(=O)N[C@H](Cc1ccc(O)cc1)C(=O)N[C@H](CC(C)C)C(N)=O [ChIP]
- MIC (P. aeruginosa B3-CFI): 8 µg/mL (≈ 5.52 µM)
- peritoneal titers (E. coli ESBL20150072): 1×10^4 CFU/ml
- reduction in peritoneal titers compared to vehicle (1×10^8 CFU/ml) (E. coli ESBL20150072): 3 logs
- peritoneal bacterial titers after treatment (E. coli ATCC 25922 [1]; [4]): 1-5×10^5 CFU/ml
- reduction of peritoneal bacterial titers (E. coli ATCC 25922 [1]; [4]): 2 logs
- peritoneal CFUs after treatment (E. coli ATCC 25922 [1]; [5]): 1×10^3 CFU/ml
- reduction of peritoneal CFUs (E. coli ATCC 25922 [1]; [5]): 4 logs
- incorporation of radioactive labelled precursors into DNA, RNA, protein and peptidoglycan (E. coli MG1655): blocked incorporation
- bacterial reduction intraperitoneal (E. coli and A. baumannii): up to 5 logs
- reduction in viable cells (E. coli ATCC 25922 [2]): 3-4 log
- hemolytic activity [3]: low hemolytic activity

From publication doi:10.1101/2021.12.13.472350v1, “An amphipathic and cationic antimicrobial peptide kills colistin resistant Gram-negative pathogens in vivo” (bioRxiv, 2021)
